Measurements from US20210155670A1, “SYSTEMS AND METHODS FOR THE PREPARATION OF PEPTIDE-MHC-I COMPLEXES WITH NATIVE GLYCAN MODIFICATIONS” (The Regents of the University of California, priority 2019, published 2021).
“Also recorded” adds a separate entry of the source. Like-named read-outs stand apart in the source and are kept apart here. Ends that are not written are not given here.

Columns and labels:
[1] = biological target: T1, HLA-A*68:02/TAPBPR complex (Homo sapiens, UniProt P04439+P61769, A269V/D140Y/D185E/E176V/E277Q/E87N/F33Y/G231S/I121R/I166T/I218V/L180W/N151K/P208A/P217A/Q86R/R138H/R169H/R297K/S129P/V36M); assay: Native gel shift assay of peptide binding to HLA-A*68:02/TAPBPR complex; details: Example 2, 10-molar excess of peptide
T1 construct: human beta-2 microglobulin signal peptide (N); TEV protease site (C, cleaved yes); FOS leucine zipper (C, cleaved yes); made in house; host or cells: CHO cells
Excerpt: CHO-derived HLA-A*02:01/TAPBPR complexes can be loaded with high-affinity TAX9 and MART-1 peptides (FIG. 11D). […] The two alleles have considerable sequence homology in the peptide-binding groove formed by the α1/α2 domains, resulting in a shared preference for a Val, Leu, Ala or Ile at the peptide anchor position 9, but marked variation at anchor position 2 where HLA-A*02:01 has a preference for Leu while HLA-A*68:02 prefers Thr (FIG. 11A). […] Structure-based modeling (Nerli and Sgourakis, bioRxiv, 2020.03.23.004176 (2020)) confirmed A-pocket hydrogen bonding interactions between peptide anchor position L2 with the K66 sidechain, Y7 with Y99 from HLA-A*02:01, and anchor position T2 with N66 and N63 from HLA-A*68:02 (FIG. 11B). According to the electrophoretic mobility shift assay, all predicted high-affinity peptides bound to HLA-A*02:01 and HLA-A*68:02 resulting in discrete pMHC-I protein bands. (FIG. 11C).
Gels were imaged using an Innotech FluoChem2 system (Genetic Technologies Grover, Mo.).

[2] = biological target: T2, HLA-A*02:01/TAPBPR complex (Homo sapiens, UniProt P04439+P61769, D140Y/D185E/D98H/E176V/E277Q/G131W/G231S/I119V/I121R/I166T/I218V/N151K/N90K/P208A/P217A/Q86G/Q94H/R138H/R169H); assay: Native gel shift assay of peptide binding to HLA-A*02:01/TAPBPR complex
T2 construct: human beta-2 microglobulin signal peptide (N); TEV protease site (C, cleaved yes); FOS leucine zipper (C, cleaved yes); made in house; host or cells: CHO cells (CHO-K1s / CHO-K1s C1s-/-), co-transfected, secreted

[3] = biological target: T3, HLA-A*24:02/TAPBPR complex (Homo sapiens, UniProt P04439+P61769, D101N/D140Y/E190D/F33S/G103R/G107R/I119L/I121M/L105A/N151K/N90K/Q86E/Q94H/R106L/R138H/R89G/T104I/V100E/W191G/Y123F); assay: Native gel electrophoresis of HLA-A*24:02/TAPBPR complex with peptides; assay type: binding; details: FIG. 14c
T3 construct: human beta-2 microglobulin signal peptide (N); TEV protease site (C, cleaved yes); FOS leucine zipper (C, cleaved yes); made in house; host or cells: CHO cells

[4] = Example 2, 10-fold molar excess of peptide, native gel

GLLGIGILTV [GM1]
pMHC-I band formation in electrophoretic mobility shift assay [1]: significant binding

LLFGVPVYV [TAX9]
native gel band shift of MHC-I (pMHC formation) [2]: resulted in a band shift | pMHC-I band formation in electrophoretic mobility shift assay [2, 4]: formation of discrete bands corresponding to properly conformed pMHC species; also recorded: can be loaded; also recorded: pMHC-I formation

RGPGRAFVFI [Peptide P18_I10]
native gel band shift of MHC-I (pMHC formation) [2]: did not | pMHC-I band formation in electrophoretic mobility shift assay [2, 4]: non-binding

RYPLTFGWCF [Nef138-10]
complex dissociation in the presence of peptide, native gel [3]: complex dissociation

TLACFVLAAV
pMHC-I band formation in electrophoretic mobility shift assay [2]: little or no binding

VYGFVRACL [PHOX2B]
complex dissociation in the presence of peptide, native gel [3]: complex dissociation

WLMWLIINL
pMHC-I band formation in electrophoretic mobility shift assay [2, 4]: little or no binding

YPNVNIHNF [NIH p29, non-specific (NS) negative control peptide]
native gel band shift of MHC-I (pMHC formation) ([2]; Example 1, SEC purified unzippered complex, 5:1 molar ratio, 1 h room temperature): did not | pMHC-I band formation in electrophoretic mobility shift assay [2, 4]: non-binding
